In BindingDB's records for doi:10.7270/Q2S46QSD (D3R/Abbott, 2015) one finds Ki data, which are given here for 12 molecules.

The experiment deals with Mitogen-activated protein kinase 1 (Homo sapiens, UniProt P28482). Description: Photometric_Method2.
Sequence of Mitogen-activated protein kinase 1 (P28482 whole entry): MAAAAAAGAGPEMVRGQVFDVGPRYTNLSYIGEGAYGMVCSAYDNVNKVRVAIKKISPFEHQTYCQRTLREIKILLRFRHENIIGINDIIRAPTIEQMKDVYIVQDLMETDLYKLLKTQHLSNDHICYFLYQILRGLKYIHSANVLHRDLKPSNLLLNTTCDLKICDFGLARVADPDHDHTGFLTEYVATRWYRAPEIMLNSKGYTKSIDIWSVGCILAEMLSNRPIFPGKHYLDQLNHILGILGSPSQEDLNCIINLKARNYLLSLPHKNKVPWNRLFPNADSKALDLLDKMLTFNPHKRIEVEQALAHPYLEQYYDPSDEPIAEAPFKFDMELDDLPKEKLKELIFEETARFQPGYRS
Consider `Cc1cnc(N[C@H]2CCCC[C@H]2O)nc1-c1c[nH]c(C(=O)N[C@H](CO)c2ccccc2)c1` [erk000465], for which affinity was put at a Ki of 7.1 nM. In other words, the single-digit nanomolar range.

`Cc1cnc(NN(C)C)nc1-c1c[nH]c(C(=O)N[C@H](CO)c2ccccc2)c1` [erk000505] came in with a Ki of 7.1 nM.

Molecule `Cc1cnc(NCCc2ccccc2)nc1-c1c[nH]c(C(=O)N[C@H](CO)c2ccccc2)c1` [erk000578] came in with a Ki of 7.1 nM.

Regarding `Cc1cnc(NC2CCOCC2)nc1-c1c[nH]c(C(=O)N[C@H](CO)c2cccc(Cl)c2)c1` [erk000584], the Ki amounted to 7.9 nM.

Turning to `Cc1ccc(Nc2ncc(C)c(-c3c[nH]c(C(=O)N[C@H](CO)c4cccc(Cl)c4)c3)n2)cc1` [erk000585], the Ki came out at 7.1 nM.

The molecule `Cc1cnc(Nc2cccc3c2OC(F)(F)O3)nc1-c1c[nH]c(C(=O)N[C@H](CO)c2ccccc2)c1` [erk000591] had a Ki of 7.9 nM.

Take `Cc1cccc([C@@H](CO)NC(=O)c2cc(-c3nc(Nc4cccc(F)c4C)ncc3C)c[nH]2)c1` [erk000601]: the affinity, expressed as Ki, was 7.9 nM. In other words, the single-digit nanomolar range.

Turning to `Cc1cnc(N[C@H]2CCC[C@H]2O)nc1-c1c[nH]c(C(=O)N[C@H](CO)c2cccc(Cl)c2)c1` [erk000612], the affinity, expressed as Ki, was 7.1 nM. This Ki and that of the molecule before are within 1.5-fold of each other.

`Cc1cnc(NN2CCCC2)nc1-c1c[nH]c(C(=O)N[C@H](CO)c2cccc(Cl)c2)c1` [erk000624] displayed a Ki of 7.1 nM.

With `Cc1cnc(Nc2ccc(Cl)cc2Cl)nc1-c1c[nH]c(C(=O)N[C@H](CO)c2ccccc2)c1` [erk000657], the affinity, expressed as Ki, was 7.9 nM.

The molecule `Cc1cnc(N[C@@H](CO)CC(F)(F)F)nc1-c1c[nH]c(C(=O)N[C@H](CO)c2cccc(Cl)c2)c1` [erk000675] returned a Ki of 7.9 nM.

Consider `CCOC(=O)N1CCC(Nc2ncc(Cl)c(-c3c[nH]c(C(=O)N[C@H](CO)c4cccc(Cl)c4)c3)n2)CC1` [erk000703], for which the Ki was 7.1 nM.
